Columns and labels:
trastuzumab = test: Confirmation screen on TentaGel beads, crosslinked trastuzumab detected with anti-human IgG Cy3; details: DNFB reacted with methylamine or methylpypridine prior to staining
Description: Approximately 100,000 library beads were immobilized onto 30 mm polystyrene dishes by using a series of 90% DMF washes. Beads were then washed and swelled in PBS. Nonspecific binding was inhibited with blocking buffer (0.1% BSA, 0.1% Tween, and 0.05% sodium azide) for one hour in room temperature. […] Excess antibody was removed, and beads were gently washed with PBS. To facilitate crosslinking of DNDFB to the antibody of the peptide library, we raised the pH to 8.5 for one hour. After crosslinking, beads were washed sequentially with PBS, 1.00 mM pH 3 glycine, and then pH 8 TBS. Anti-human IgG-alkaline phosphatase conjugate was then added at 1:1000 dilution. After washing, beads were then developed using BCIP (5-bromo-4-chloro-3′-indolyphosphate p-toluidine salt) solution. (NBT (nitro-blue tetrazolium chloride) was not used due to high background staining with TentaGel library beads.) Using a dissecting microscope, plates were imaged and positive beads were isolated. The isolated beads were then treated with 8M guanidine/HCl to remove all non-covalently linked proteins. The beads were further washed with PBS and water. […]
In the confirmation studies, hits were synthesized on TentaGel. Staining steps were the same except 1:30 anti-human IgG conjugated to Cy3 was used to allow for fluorescence quantification. […] Bead intensity was measured and quantified using Image J. […]

SKOV3 = test: In vitro T cell killing assay by flow cytometry; format: cell-based; details: with activated T cells
Description: FIG. 30. Depicts results of an in vitro T cell killing assay monitored and quantified by flow cytometry.
In vitro cytotoxicity assays were performed to analyze the effect of the NMDS-LYX30 bi-functional immunoconjugate on T cell targeting of an α3β1 integrin expressing target cell. Target cells (SKOV3) were labeled with GFP. The labeled target cells were plated in 6-well plates at 30000 cells per well and allowed to adhere overnight at 37° C. in a humidified atmosphere of 5% CO2. PBMCs were isolated from healthy volunteer donor and activated with anti-CD3, anti-CD28 (1 ug/ml) for 72 hours prior to co-incubation with target cells. The activated PBMCs were co-cultured with target cells at E:T=10:1 ratio for 12 hours at 37° C. in a humidified atmosphere of 5% CO2 with or without 100 ng/ml immunoconjugates contained medium. At the end of the incubation, the cells were lifted by trypsin and collected from the plate. The cells were resuspended in equal volume of PBS containing 2% FBS, 1 mmol/L EDTA, Propidium iodine (PI) and Annexin V-APC for 15 minutes. The fluorescent intensity of GFP, PI and APC were recorded by a FACs machine. 10000 events of target cells were recorded by gating GFP positive channel. The percentage of live/dead cells was calculated by the different cell population containing different amount of annexin V or PI. […] The results are depicted in FIG. 30.

With “indole-butyrate-Lys(DNFB)-Asp-Ser linker [DS affinity element]” the “decrease in fluorescent intensity” value (trastuzumab) was 50%.
In the case of “nivolumab: anti-PD-1 checkpoint inhibitor antibody”, the target cell killing (SKOV3) was “increased target cell killing”.

From patent US10588982B2, “Site-specific covalent chemical ligation to monoclonal and polyclonal immunoglobulin” (The Regents of the University of California, priority 2015, dated 2020)
